Laboratory results reported in US20090022726A1, “METHOD OF USING IL6 ANTAGONISTS WITH PROTEASOME INHIBITORS” (priority 2005, published 2009).
“Also recorded” adds a separate entry of the source.

How the values were obtained:
[1] = test system: HSF-1 knockout MEFs; assay: Apoptosis assay, KNK437 with bortezomib; type: cell-based, mouse; details: 24 hours
Description: (§1) ANBL-6 and KAS-6 cells were incubated with 10 mcg/ml (ANBL-6) or 1 mcg/ml (KAS-6) of CNTO 328 or the control antibody, F105, for 8 (ANBL-6) to 12 (KAS-6) hours. Apoptosis was determined using an ELISA-based assay that measures the presence of mono- and oligo-nucleosomes (Roche Applied Science, Indianapolis, Ind.) and expressed as a fold increase in apoptosis over DMSO and F105-treated controls. Cells were treated in RPMI 1640 media containing 10% FBS and 1 ng/mL of IL-6 (FIGS. 3 A and B, column height represents the mean of triplicate cultures; bars, SEM).
(§2) ANBL-6 or MEF cells (control and HSF-1−/−) were incubated with either DMSO control or increasing concentrations of bortezomib and KNK437 for 12 (ANBL-6) to 24 hours (MEFs). Apoptosis was determined as described above and expressed as a fold increase in apoptosis over DMSO-treated controls. ANBL-6 cells were treated in RPMI 1640 media containing 10% FBS and 1 ng/mL of IL-6 (FIG. 5, columns, mean of triplicate cultures; bars, SEM).

[2] = test system: normal mouse embryo fibroblasts (MEFs); assay: Apoptosis assay, KNK437 with bortezomib; type: cell-based; details: normal (HSF-1+/+) MEFs, 24 hours
Description: as §1, §2

[3] = test system: ANBL-6 cells; assay: Apoptosis assay, KNK437 with bortezomib; type: cell-based; details: ANBL-6, KNK437 with bortezomib, 12 hours, compared with control treated cells
Description: as §1, §2

[4] = test system: KAS-6 cells; assay: Apoptosis, KNK437 with bortezomib; type: cell-based
[5] = test system: proteasome; details: over human leukocyte elastase, cathepsin G, chymotrypsin and thrombin; cited from earlier work
[6] = test system: IL-6 signaling, HSP-70 and MKP-1 in ANBL-6 cells; assay: Immunoblot analysis of IL-6 signaling, HSP-70 and MKP-1 with densitometry; type: cell-based
Description: ANBL-6 cells were incubated with 10 mcg/ml of CNTO 328 or the control antibody, F105, with or without increasing concentrations of bortezomib for 8 hours. Cell lysates were prepared and subjected to immunoblot analysis. Blots were stripped and probed for HSC-70 to ensure equal protein loading per lane. Densitometry was performed on HSP-70 and MKP-1 immunoblots.

[7] = test system: refractory or relapsed myeloma; details: refractory or relapsed disease, initial phase II clinical trial (Richardson et al. 2003); cited from earlier work
[8] = test system: IL-6-independent myeloma cell line RPMI 8226; assay: ELISA-based apoptosis assay, antibody and bortezomib; type: cell-based; details: RPMI 8226, data not shown
[9] = test system: ANBL-6 cells; assay: WST-1 cell viability, antibody alone; type: cell-based; details: increasing concentrations, 24 and 48 hours, 1 ng/mL of IL-6
Description: (§3) ANBL-6 and KAS-6 cells (Dr. Diane Jelinek, Mayo Clinic, Rochester, Minn.) were incubated with increasing concentrations of CNTO 328 or the isotype control antibody, F105, for 24 and 48 hours. For the last 4 hours, the cells were incubated in the presence of WST-1 (Roche Applied Science, Indianapolis, Ind.). Reduction of WST-1 into a water soluble formazan salt by viable cells was measured at an absorbance of 450 nm using an ELISA plate reader. Viability was measured as percent viability relative to untreated cells. All cells were treated in RPMI 1640 media containing 10% FBS and 1 ng/mL of IL-6.

[10] = test system: KAS-6 cells; assay: WST-1 cell viability, antibody alone; type: cell-based; details: increasing concentrations, 24 and 48 hours, 1 ng/mL of IL-6
Description: as §3

[11] = test system: ANBL-6 cells; assay: ELISA-based apoptosis assay (mono- and oligo-nucleosomes), antibody and bortezomib; type: cell-based; details: ANBL-6, 10 mcg/ml CNTO 328 with bortezomib, 8 hours
Description: as §1

[12] = test system: KAS-6 cells; assay: as above; type: cell-based; details: KAS-6, 1 mcg/ml CNTO 328 with bortezomib, 12 hours
Description: as §1

[13] = test system: IL-6 signaling in KAS-6 cells; assay: Down-regulation of IL-6 signaling (phospho-protein levels); type: cell-based
[14] = test system: ANBL-6 cells; assay: WST-1 cell viability, antibody combined with bortezomib; type: cell-based
Description: as §3
(§4) The ANBL-6, KAS-6, or IL-6-independent RPMI 8226 myeloma cell lines were pre-incubated with 0.1 mcg/ml (KAS-6) or 10 mcg/ml (ANBL-6 and RPMI 8226) of the control antibody, F105, or CNTO 328 for 24 hours, followed by co-incubation with either DMSO control or increasing concentrations of bortezomib in the continued presence of F105 or CNTO 328 for another 24 hours. For sequencing experiments, ANBL-6 cells were treated with: 1) F105 or CNTO 328 for 24 hours followed by F105 or CNTO 328 and bortezomib 5 nM for another 24 hours (antibody→bortezomib); 2) F105 or CNTO 328 and bortezomib 5 nM concurrently for 24 hours (antibody+bortezomib), or bortezomib at 5 nM for 12 hours followed by F105 or CNTO 328 for 24 hours (bortezomib→antibody). Cell viability was assayed as described above and measured as percent viability relative to untreated cells. All cells were treated in RPMI 1640 media containing 10% FBS and 1 ng/mL of IL-6. Columns, mean of quintuplicate cultures; bars, SEM.

[15] = test system: KAS-6 cells; assay: as above; type: cell-based; details: KAS-6, 0.1 mcg/ml antibody pre-incubated 24 hours, then bortezomib 24 hours; relative to control antibody F105
Description: as §3, §4

[16] = test system: IL-6-independent RPMI 8226 myeloma cell line; assay: as above; type: cell-based; details: RPMI 8226, 10 mcg/ml antibody pre-incubated 24 hours, then bortezomib 24 hours
Description: as §3, §4

[17] = 10 mcg/ml CNTO 328 with bortezomib, 8 hours, densitometry
[18] = CNTO 328 with bortezomib, immunoblot

In the case of `O=CN1CC/C(=C\c2ccc3c(c2)OCO3)C1=O` [KNK437], the “synergistic activity with bortezomib (apoptosis)” value [1] is reported as “blunted”, the “synergistic activity with bortezomib (apoptosis)” value [2] is reported as “reproduced” and the “bortezomib-mediated apoptosis (fold increase over DMSO-treated controls)” value [3] is reported as “significant increase in bortezomib-mediated apoptosis”. For the same molecule, the “apoptotic activity of bortezomib” value [4] was “enhanced the apoptotic activity of bortezomib”.
For `CC(C)C[C@H](NC(=O)[C@H](Cc1ccccc1)NC(=O)c1cnccn1)B(O)O` [bortezomib, reference compound], the “selectivity for the proteasome over other serine proteases” value [5] is given as over 500 fold, the “levels of phospho-STAT-3” value ([6]; 8 hours, immunoblot) is given as “decreased levels” and the “levels of phospho-p42/44 MAPK” value ([6]; 8 hours, immunoblot) is given as “decreased levels”. For the same molecule, the “patients with partial responses or better” value [7] was 27%.
With “CNTO 328: chimeric monoclonal IL-6 neutralizing antibody” the potentiation of apoptosis [8] was “not able to potentiate apoptosis”, the “cell viability (percent viability relative to untreated cells)” value [9] was “dose- and time-dependent reduction in cell viability” and the “cell viability (percent viability relative to untreated cells)” value [10] was “dose- and time-dependent reduction in cell viability”. For the same molecule, the “induction of apoptosis (fold increase over DMSO and F105-treated controls)” value [11] was “enhanced induction of apoptosis; also recorded: greater than the sum of the two individual agents alone”, the “induction of apoptosis (fold increase over DMSO and F105-treated controls)” value [12] was “enhanced induction of apoptosis; also recorded: greater than the sum of the two individual agents alone” and the “decrease of bortezomib-mediated induction of HSP-70” value [6, 17] was 45%. The “decrease of bortezomib-mediated induction of MKP-1” value [6, 17] was 90%, the “levels of phospho-STAT-3” value ([6]; 8 hours, immunoblot) was “reduction in levels” and the “levels of phospho-p42/44 MAPK” value ([6]; 8 hours, immunoblot) was “reduction in levels”. For the same molecule, the “levels of hyperphosphorylated HSF-1” value [6, 18] was “decreased levels”, the “levels of transcriptionally active phospho-STAT-1” value [6, 18] was “decreased levels” and the “phospho-STAT-3 and phospho-p42/44 MAPK levels” value [13] was “marked decrease”. For the same molecule, the “effect on cytotoxicity of bortezomib (cell viability)” value ([14]; ANBL-6, 10 mcg/ml antibody pre-incubated 24 hours, then bortezomib 24 hours, relative to control antibody F105) was “potentiated the cytotoxicity of bortezomib”, the “effect on cytotoxicity of bortezomib, sequencing” value (from here on “effect … sequencing”) ([14]; ANBL-6, antibody 24 hours followed by antibody and bortezomib 5 nM 24 hours (antibody→bortezomib)) was “enhanced the cytotoxicity of bortezomib most” and the “effect … sequencing” value ([14]; ANBL-6, antibody and bortezomib 5 nM concurrently for 24 hours (antibody+bortezomib)) was “enhanced the cytotoxicity of bortezomib most”. The “effect … sequencing” value ([14]; ANBL-6, bortezomib 5 nM 12 hours followed by antibody 24 hours (bortezomib→antibody)) was “little additional effect”, the “effect on cytotoxicity of bortezomib (cell viability)” value [15] was “potentiated the cytotoxicity of bortezomib” and the “effect on activity of bortezomib (cell viability)” value [16] was “did not enhance the activity of bortezomib”.
